Data published in patent US12428413B2 (CHDI Foundation, Inc., priority 2019, dated 2025).

Assays:
[1] = system: cellular ROCK activity (cofilin phosphorylation at Ser3) in A7r5 rat smooth muscle cells; assay: Cellular ROCK activity: cofilin (Ser3) phosphorylation, In-Cell Western assay; format: cell-based; details: Rattus norvegicus, A7R5, 1 h, 1 hour compound incubation, phospho-cofilin (Ser3), read-out: CELL_IC50
Experimental: The potency of Rho-associated protein kinase (ROCK) inhibitors was quantified by measuring cofilin phosphorylation levels at Serine 3 (Ser3) as a measure of cellular ROCK activity by In-Cell Western assay. […] The assay plate was imaged and quantified on the Odyssey imager (LICOR Biosciences).
ROCK inhibitor compound plate preparation. […] Stock compounds and control are added directly to ECHO plate (Labcyte) by Janus.
A7r5 cell culture and plating. A7r5 cells were cultured according to standard cell culture protocols in A7r5 growth media (DMEM with Glutamax and 10% FBS). […] 45 μl of re-suspended A7r5 cells were plated at 3000 cells/well in a sterile, μclear, black, F-bottom, 384-well microplate (Greiner bio-one). Seeded cells allowed to settle in wells on the bench for 1 hour before incubation at 37° C., 5% CO2 overnight.
Assay reagent and antibody preparations. Wash buffer was prepared by addition of Tween-20 to Dulbecco's Phosphate Buffered Saline (DPBS) (1×) without calcium and magnesium to make 1% Tween-20 as final concentration. Blocking buffer was prepared by addition of TritonX-100 to SeaBlock buffer (ThermoFisher) to make 0.3% TritonX-100 as final concentration. […] Secondary antibody mix was prepared by diluting donkey anti-rabbit 800CW antibody (LICOR Biosciences) 1:1000 in SeaBlock buffer.
Assay procedure. Compound plate was diluted by addition of 19 μl/well compound dilution buffer (DMEM with Glutamax) using 125 μl 16-channel Matrix electronic pipette. 5 μl diluted compound was stamped from compound plate to assay plate containing A7r5 cells using Bravo (384-well head from Agilent) liquid handler and incubated at 37° C., 5% CO2 for 1 hour. Cells were fixed by addition of 5 μl 37% formaldehyde using 125 μl 16-channel Matrix electronic pipette and incubation for 20 min at room temperature. The assay plate was washed 5× with 60 μl/well wash buffer. […] Next, the assay plate was sealed, centrifuged at 1000 rpm for 5 seconds and incubated at 4° C. overnight on an orbital shaker at 300 rpm. […] The assay plate was centrifuged at 1000 rpm for 5 seconds and incubated on an orbital shaker at 300 rpm for 60 min at room temperature. Finally, assay plate was washed and wells left empty before measurement of 700 nm and 800 nm fluorescence intensities on Odyssey imager set at 4.0 mm focus offset.

[2] = target: human catalytic domain ROCK II protein (amino acids 5-554) with a N-terminal GST tag (Homo sapiens, UniProt O75116); assay: biochemical
Sequence of human catalytic domain ROCK II protein (amino acids 5-554) with a N-terminal GST tag (O75116 5-554): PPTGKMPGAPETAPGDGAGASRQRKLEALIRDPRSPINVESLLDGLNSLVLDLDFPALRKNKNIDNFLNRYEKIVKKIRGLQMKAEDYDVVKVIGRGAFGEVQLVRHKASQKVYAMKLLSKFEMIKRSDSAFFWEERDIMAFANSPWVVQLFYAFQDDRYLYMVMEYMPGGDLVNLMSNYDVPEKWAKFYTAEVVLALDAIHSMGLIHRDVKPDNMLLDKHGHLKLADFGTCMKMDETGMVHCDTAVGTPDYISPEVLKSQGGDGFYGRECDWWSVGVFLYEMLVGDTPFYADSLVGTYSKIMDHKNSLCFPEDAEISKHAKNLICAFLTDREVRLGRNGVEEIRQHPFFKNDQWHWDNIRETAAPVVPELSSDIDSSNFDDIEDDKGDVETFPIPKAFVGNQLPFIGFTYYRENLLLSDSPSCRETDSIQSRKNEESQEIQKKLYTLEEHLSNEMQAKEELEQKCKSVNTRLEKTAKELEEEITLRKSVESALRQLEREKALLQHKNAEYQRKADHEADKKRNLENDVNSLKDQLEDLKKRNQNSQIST
Experimental: The potency of Rho-associated protein kinase (ROCK) II inhibitors was quantified by measuring ROCKII kinase domain enzymatic activity using ADP-Glo™ Kinase Assay format. […] ADP-Glo™ Reagent was added that terminates ROCKII reaction and depletes remaining ATP. Kinase Detection Reagent was added to convert ADP to ATP and allow newly synthesized ATP to be measured using luciferase/luciferin reaction. The light generated correlates to the amount of ADP generated in the ROCKII biochemical reaction, which is indicative of ROCKII activity.
ROCK inhibitor compound plate preparation. Lyophilized ROCK inhibitors were re-suspended to a final concentration of 10 mM in 100% dimethyl sulfoxide (DMSO) and control reference compound, Fasudil HCl, to a final concentration of 100 mM in 100% DMSO using Janus automated liquid handler workstation (Perkin Elmer) and were stored at room temperature under nitrogen. Stock compounds and controls were added directly to ECHO plate (Labcyte) by Janus. The Echo 555 liquid handler (Labcyte) dispensed duplicate 10-point concentration-response curves for each compound directly into 384-well, black, U-bottom assay plate (Matrix Technologies Ltd) at 100× final assay concentration. Final compound or control volume per well is 100 nl (0.1 μl). Assay standards were prepared by Echo dispensing 5 nl of 100 mM Fasudil HCl and 95 nl DMSO for full inhibition control (50 μM final assay concentration and 1% DMSO) and 100 nl of DMSO for full activity control (1% DMSO).
The ROCKII catalytic domain enzyme was human catalytic domain ROCK II protein (amino acids 5-554) with a N-terminal GST tag (SignalChem).
Preparation of S6K peptide substrate (20 μM) and ATP (10 μM). The S6K peptide sequence (amino acid sequence [sequence]) was based on human 40 S ribosomal protein S6 (amino acids 230-238) (SignalChem). […]
Assay procedure. […] The assay plate was further incubated in a polystyrene box for 30 min at room temperature without the seal and luminescence signal was measured using EnVision (Perkin Elmer) in top read mode.

IC50 [1]	IC50 [2]	SMILES
356 nM	–	Cc1cc2c([C@@H](C)NC(=O)N3CCN(c4ccnc(F)c4)C[C@H]3C)cccc2o1 [Example 4, (R)-4-(2-Fluoropyridin-4-yl)-2-methyl-N—((R)-1-(2-methylbenzofuran-4-yl)ethyl)piperazine-1-carboxamide]
–	864 nM	C[C@@H]1CN(c2ccnc(F)c2)CCN1C(=O)NCc1cccc2c1OC(F)(F)O2 [Example 5, (R)—N-((2,2-Difluorobenzo[d][1,3]dioxol-4-yl)methyl)-4-(2-fluoropyridin-4-yl)-2-methylpiperazine-1-carboxamide]
–	117 nM	C[C@@H]1CN(c2ccnc(F)c2)CCN1C(=O)NCc1cccc2c1OCO2 [Example 6, (R)—N-(Benzo[d][1,3]dioxol-4-ylmethyl)-4-(2-fluoropyridin-4-yl)-2-methylpiperazine-1-carboxamide]
≥ 5000 nM	–	Cc1cnc2cccc([C@H](C)NC(=O)N3CCN(c4ccnc(F)c4)C[C@H]3C)n12 [Example 10, (R)-4-(2-Fluoropyridin-4-yl)-2-methyl-N—((S)-1-(3-methylimidazo[1,2-a]pyridin-5-yl)ethyl)piperazine-1-carboxamide]
–	3410 nM	C[C@@H]1CN(C(=O)N[C@H](C)c2ccc(F)cc2Cl)CCN1c1ccnc(F)c1 [Example 14, (R)—N—((R)-1-(2-Chloro-4-fluorophenyl)ethyl)-4-(2-fluoropyridin-4-yl)-3-methylpiperazine-1-carboxamide]
1470 nM	–	C[C@@H](NC(=O)N1CCN(c2ccncc2F)CC1)c1ccccc1Br [Example 19, (R)—N-(1-(2-Bromophenyl)ethyl)-4-(3-fluoropyridin-4-yl)piperazine-1-carboxamide]
1780 nM	–	C[C@@H](NC(=O)N1CCN(c2ccncc2F)CC1)c1ccc(F)cc1Cl [Example 21, (R)—N-(1-(2-Chloro-4-fluorophenyl)ethyl)-4-(3-fluoropyridin-4-yl)piperazine-1-carboxamide]
410 nM	–	C[C@@H](NC(=O)N1CCN(c2ccncc2F)CC1)c1cccc2ccn(C)c12 [Example 32, (R)-4-(3-fluoropyridin-4-yl)-N-(1-(1-methyl-1H-indol-7-yl)ethyl)piperazine-1-carboxamide]
761 nM	–	O=C(NCc1cccc2occc12)N1CCN(c2ccncc2F)CC1 [Example 38, N-(Benzofuran-4-ylmethyl)-4-(3-fluoropyridin-4-yl)piperazine-1-carboxamide]
73 nM	–	C[C@@H]1CN(c2ccncc2F)CCN1C(=O)N[C@H](C)c1ccccc1Cl [Example 42, (R)—N—((R)-1-(2-Chlorophenyl)ethyl)-4-(3-fluoropyridin-4-yl)-2-methylpiperazine-1-carboxamide]
125 nM	–	C[C@@H]1CN(c2ccncc2F)CCN1C(=O)N[C@H](C)c1ccccc1Br [Example 45, (R)—N—((R)-1-(2-Bromophenyl)ethyl)-4-(3-fluoropyridin-4-yl)-2-methylpiperazine-1-carboxamide]
131 nM	–	C[C@@H]1CN(c2ccncc2F)CCN1C(=O)N[C@H](C)c1cccc(F)c1Cl [Example 47, (R)—N—((R)-1-(2-Chloro-3-fluorophenyl)ethyl)-4-(3-fluoropyridin-4-yl)-2-methylpiperazine-1-carboxamide]
279 nM	–	C[C@H](NC(=O)N1CCN(c2ccncc2F)C[C@H]1C)c1cccc(F)c1Cl [Example 48, (R)—N—((S)-1-(2-chloro-3-fluorophenyl)ethyl)-4-(3-fluoropyridin-4-yl)-2-methylpiperazine-1-carboxamide]
164 nM	–	COc1ccc(Cl)c([C@@H](C)NC(=O)N2CCN(c3ccncc3F)C[C@H]2C)c1 [Example 49, (R)—N—((R)-1-(2-Chloro-5-methoxyphenyl)ethyl)-4-(3-fluoropyridin-4-yl)-2-methylpiperazine-1-carboxamide]
15.2 nM	–	COc1cc(F)cc([C@@H](C)NC(=O)N2CCN(c3ccncc3F)C[C@H]2C)c1 [Example 51, (R)—N—((R)-1-(3-Fluoro-5-methoxyphenyl)ethyl)-4-(3-fluoropyridin-4-yl)-2-methylpiperazine-1-carboxamide]
234 nM	–	C[C@@H]1CN(c2ccncc2F)CCN1C(=O)N[C@H](C)c1cccnc1 [Example 52, (R)-4-(3-Fluoropyridin-4-yl)-2-methyl-N—((R)-1-(pyridin-3-yl)ethyl)piperazine-1-carboxamide]
17.6 nM	–	C[C@@H]1CN(c2ccncc2F)CCN1C(=O)N[C@H](C)c1cccc2nccn12 [Example 58, (R)-4-(3-fluoropyridin-4-yl)-N—((R)-1-(imidazo[1,2-a]pyridin-5-yl)ethyl)-2-methylpiperazine-1-carboxamide]
33.1 nM	–	Cc1cc2c([C@@H](C)NC(=O)N3CCN(c4ccncc4F)C[C@H]3C)cccc2o1 [Example 60, (R)-4-(3-Fluoropyridin-4-yl)-2-methyl-N—((R)-1-(2-methylbenzofuran-4-yl)ethyl)piperazine-1-carboxamide]
44.2 nM	–	C[C@@H]1CN(c2ccncc2F)CCN1C(=O)N[C@H](C)c1cccc2ccn(C)c12 [Example 63, (R)-4-(3-Fluoropyridin-4-yl)-2-methyl-N—((R)-1-(1-methyl-1H-indol-7-yl)ethyl)piperazine-1-carboxamide]

IC50 [1]	IC50 [2]	SMILES
104 nM	–	Cc1nc2c([C@@H](C)NC(=O)N3CCN(c4ccncc4F)C[C@H]3C)cccc2o1 [Example 69, (R)-4-(3-Fluoropyridin-4-yl)-2-methyl-N—((R)-1-(2-methylbenzo[d]oxazol-4-yl)ethyl)piperazine-1-carboxamide]
3000 nM	–	Cc1nc2c([C@H](C)NC(=O)N3CCN(c4ccncc4F)C[C@H]3C)cccc2o1 [Example 70, (R)-4-(3-Fluoropyridin-4-yl)-2-methyl-N—((S)-1-(2-methylbenzo[d]oxazol-4-yl)ethyl)piperazine-1-carboxamide]
150 nM	–	C[C@@H]1CN(c2ccncc2F)CCN1C(=O)NCc1cccc2c1OCO2 [Example 75, (R)—N-(Benzo[d][1,3]dioxol-4-ylmethyl)-4-(3-fluoropyridin-4-yl)-2-methylpiperazine-1-carboxamide]
86.1 nM	–	C[C@@H]1CN(c2ccncc2F)CCN1C(=O)NCc1cccc2occc12 [Example 76, (R)—N-(Benzofuran-4-ylmethyl)-4-(3-fluoropyridin-4-yl)-2-methylpiperazine-1-carboxamide]
2010 nM	–	C[C@@H]1CN(c2ccncc2F)CCN1C(=O)NCc1cccc2c1cnn2C [Example 79, (R)-4-(3-Fluoropyridin-4-yl)-2-methyl-N-((1-methyl-1H-indazol-4-yl)methyl)piperazine-1-carboxamide]
75.5 nM	–	C[C@@H]1CN(c2ccncc2F)CCN1C(=O)NCc1cccc2ncccc12 [Example 80, (R)-4-(3-Fluoropyridin-4-yl)-2-methyl-N-(quinolin-5-ylmethyl)piperazine-1-carboxamide]
31.4 nM	–	CC[C@@H]1CN(c2ccncc2F)CCN1C(=O)N[C@H](C)c1cccc(OC)c1 [Example 83, (R)-2-Ethyl-4-(3-fluoropyridin-4-yl)-N—((R)-1-(3-methoxyphenyl)ethyl)piperazine-1-carboxamide]
871 nM	–	COc1cccc([C@@H](C)NC(=O)N2CCN(c3ccnc(F)c3)CC2)c1 [Example 101]
198 nM	–	C[C@@H](NC(=O)N1CCN(c2ccnc(F)c2)CC1)c1cccc2c1CCO2 [Example 102]
830 nM	–	C[C@@H](NC(=O)N1CCN(c2ccnc(F)c2)CC1)c1cccc2occc12 [Example 104]
638 nM	–	C[C@@H]1CN(c2ccnc(F)c2)CCN1C(=O)N[C@H](C)c1cccc(OC(F)F)c1 [Example 108]
1090 nM	–	C[C@@H]1CN(c2ccnc(F)c2)CCN1C(=O)N[C@H](C)c1ccccc1Cl [Example 109]
107 nM	–	COc1cccc([C@@H](C)NC(=O)N2CCN(c3ccnc(F)c3)[C@@H](C)C2)c1 [Example 117]
163 nM	–	COc1cc(F)cc([C@@H](C)NC(=O)N2CCN(c3ccncc3F)CC2)c1 [Example 128]
1040 nM	–	COc1cccc([C@@H](C)NC(=O)N2CCN(c3ccncc3F)C[C@H]2C)c1Cl [Example 135]
2620 nM	–	COc1cccc([C@H](C)NC(=O)N2CCN(c3ccncc3F)C[C@H]2C)c1Cl [Example 140]
71.6 nM	–	C[C@@H](NC(=O)N1CCN(c2ccncc2F)[C@@H](C)C1)c1cccc2occc12 [Example 148]
2740 nM	–	C[C@H]1CN(C(=O)NCc2cccc(OC(F)F)c2)CCN1c1ccncc1F [Example 149]
4.9 nM	–	C[C@@H]1CN(c2c(F)cncc2F)CCN1C(=O)N[C@H](C)c1cccc2c1CCO2 [Example 156]
